The values that follow are results of earlier work, collected in US20050142185A1, “Softgel formulations of bisphosphonates bone resorption inhibitors” (priority 2003, published 2005).

Some results are limits rather than exact numbers.

The conditions of data set [1]: taken either concurrently with or 2 hours after breakfast.
The conditions of data set [2]: marketed tablet not taken with enough water, or patient not upright for about one-half hour after taking.

Regarding `NCCCC(O)(P(=O)(O)O)P(=O)(O)O` [alendronate, 4-amino-1-hydroxybutylidene-1,1-biphosphonic acid], in data set [1], the impairment of availability was > 85%. Moreover, in data set [2], the side effects reported entry was “esophageal irritation and erosion”.
